pKi: −log10 of the molar value.
Experiments:
hSERT [1] = molecular target: T1, hSERT (Homo sapiens, UniProt P31645); test: hSERT membrane radioligand binding assay (3H-citalopram), Assay 1; details: SERT pKi, hSERT HEK-293 membranes, 1.0 nM 3H-citalopram; values given as lower bounds
Description: Membrane radioligand binding assays were used to measure inhibition of labeled ligand (^3H-citalopram or ^3H-nisoxetine or ^3H-WIN35428) binding to membranes prepared from cells expressing the respective human recombinant transporter (hSERT or hNET or hDAT) in order to determine the pKi values of test compounds at the transporters.
Recombinant human embryonic kidney (HEK-293) derived cell lines stably transfected with hSERT or hNET, respectively, were grown in DMEM medium supplemented with 10% dialyzed FBS (for hSERT) or FBS (for hNET), 100 μg/mL penicillin, 100 μg/mL streptomycin, 2 mM L-glutamine and 250 μg/mL of the aminoglycoside antibiotic G418, in a 5% CO2 humidified incubator at 37° C. When cultures reached 80% confluence, the cells were washed thoroughly in PBS (without Ca^2+ and Mg^2+) and lifted with 5 mM EDTA in PBS. Cells were pelleted by centrifugation, resuspended in lysis buffer (10 mM Tris-HCl, pH7.5 containing 1 mM EDTA), homogenized, pelleted by centrifugation, then resuspended in 50 mM Tris-HCl, pH 7.5 and 10% sucrose at 4° C. Protein concentration of the membrane suspension was determined using a Bio-Rad Bradford Protein Assay kit. Membranes were snap frozen and stored at −80° C.
Binding assays were performed in a 96-well assay plate in a total volume of 200 μl assay buffer (50 mM Tris-HCl, 120 mM NaCl, 5 mM KCl, pH 7.4) with 0.5, 1, and 3 μg membrane protein, for SERT, NET and DAT, respectively.
Stock solutions (10 mM in DMSO) of test compound were prepared and serial dilutions made using Dilution Buffer (50 mM Tris-HCl, 120 mM NaCl, 5 mM KCl, pH 7.4, 0.1% BSA, 400 μM ascorbic acid).
Following a 60 minute incubation at 22° C. (or a period sufficient to reach equilibrium), the membranes were harvested by rapid filtration over a 96-well UniFilter GF/B plate, pretreated with 0.3% polyethyleneimine, and washed 6 times with 300 μl wash buffer (50 mM Tris-HCl, 0.9% NaCl, pH 7.5 at 4° C.). Plates were dried overnight at room temperature, approximately 45 μl of MicroScint™-20 (Perkin Elmer) added and bound radioactivity quantitated via liquid scintillation spectroscopy. Inhibition curves and saturation isotherms were analyzed using GraphPad Prism Software package (GraphPad Software, Inc., San Diego, Calif.). IC50 values were generated from concentration response curves using the Sigmoidal Dose Response (variable slope) algorithm in Prism GraphPad.

hNET [2] = molecular target: T2, hNET (Homo sapiens, UniProt P23975); test: hNET membrane radioligand binding assay (3H-nisoxetine), Assay 1
hNET [3] = molecular target: T2, hNET; test: hNET neurotransmitter uptake assay (3H-NE), Assay 2; type: cell-based; set-up: expressed in transfected cells; host or cells: HEK-293; details: norepinephrine reuptake inhibition, 3H-NE uptake, HEK-293 hNET cells (values without asterisk); read-out: NET pIC50 (converted)
hSERT [4] = molecular target: T1, hSERT; test: hSERT neurotransmitter uptake assay (3H-5-HT), Assay 2; type: cell-based; set-up: expressed in transfected cells; host or cells: HEK-293; details: serotonin reuptake inhibition, 3H-5-HT uptake, HEK-293 hSERT cells (values without asterisk); read-out: SERT pIC50 (converted)

T2 sequence (P23975 whole entry): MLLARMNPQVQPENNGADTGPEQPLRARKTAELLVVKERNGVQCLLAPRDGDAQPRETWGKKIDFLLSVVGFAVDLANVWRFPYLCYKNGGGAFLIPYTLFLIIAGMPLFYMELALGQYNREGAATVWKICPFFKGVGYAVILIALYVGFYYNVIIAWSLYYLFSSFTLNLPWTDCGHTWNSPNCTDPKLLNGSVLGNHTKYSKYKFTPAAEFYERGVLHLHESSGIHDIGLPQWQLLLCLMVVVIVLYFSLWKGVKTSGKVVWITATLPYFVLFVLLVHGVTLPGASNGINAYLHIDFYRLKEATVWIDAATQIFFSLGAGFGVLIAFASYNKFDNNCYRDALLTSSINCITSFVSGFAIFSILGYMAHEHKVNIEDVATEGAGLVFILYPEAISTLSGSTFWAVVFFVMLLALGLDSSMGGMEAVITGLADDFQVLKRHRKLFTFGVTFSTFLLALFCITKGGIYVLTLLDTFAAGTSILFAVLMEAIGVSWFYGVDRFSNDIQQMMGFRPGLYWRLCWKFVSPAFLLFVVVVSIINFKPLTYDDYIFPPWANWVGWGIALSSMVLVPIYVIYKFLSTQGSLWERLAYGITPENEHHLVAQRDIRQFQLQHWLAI
T1 sequence (P31645 whole entry): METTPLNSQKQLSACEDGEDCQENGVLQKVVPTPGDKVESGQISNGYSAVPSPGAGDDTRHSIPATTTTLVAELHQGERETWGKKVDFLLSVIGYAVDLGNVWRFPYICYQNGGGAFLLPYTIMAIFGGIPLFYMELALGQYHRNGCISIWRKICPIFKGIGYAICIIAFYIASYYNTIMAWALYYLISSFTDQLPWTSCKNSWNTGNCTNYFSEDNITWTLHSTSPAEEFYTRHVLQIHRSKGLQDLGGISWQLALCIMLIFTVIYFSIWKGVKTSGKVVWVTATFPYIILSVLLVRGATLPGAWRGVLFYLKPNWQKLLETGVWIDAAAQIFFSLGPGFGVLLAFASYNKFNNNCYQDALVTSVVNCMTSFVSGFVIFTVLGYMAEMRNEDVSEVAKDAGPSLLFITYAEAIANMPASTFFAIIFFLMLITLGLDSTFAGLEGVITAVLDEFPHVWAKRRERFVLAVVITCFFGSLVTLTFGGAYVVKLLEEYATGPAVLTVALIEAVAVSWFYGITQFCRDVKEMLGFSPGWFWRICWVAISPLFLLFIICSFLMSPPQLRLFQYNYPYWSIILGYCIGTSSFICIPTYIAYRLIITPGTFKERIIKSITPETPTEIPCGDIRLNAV

Structure (SMILES)	pKi (hSERT [1])	pKi (hNET [2])	IC50 (hNET [3]) [nM]	IC50 (hSERT [4]) [nM]
CCc1cc(F)cc(F)c1O[C@@H](C1CC1)[C@H]1CCNC1 [Example 16-81, (S)-3-[(S)cyclopropyl-(2-ethyl-4,6-difluorophenoxy)-methyl]pyrrolidine]	≥ 8.00	≥ 8.00	≤ 10	≤ 100
CSc1cccc(O[C@@H](C2CC2)[C@H]2CCNC2)c1 [Example 16-86, (S)-3-[(S)cyclopropyl-(3-methylsulfanylphenoxy)methyl]pyrrolidine]	≥ 8.00	≥ 8.00	≤ 10	≤ 100
Fc1ccc(O[C@@H](C2CC2)[C@H]2CCNC2)cc1Cl [Example 16-89, (S)-3-[(S)-(3-Chloro-4-fluorophenoxy)cyclopropylmethyl]pyrrolidine]	≥ 8.00	≥ 8.00	≤ 100	≤ 100
Fc1cc(O[C@H](C2CC2)[C@H]2CCNC2)ccc1Cl [Example 16-91, (S)-3-[(R)-(4-Chloro-3-fluorophenoxy)cyclopropylmethyl]pyrrolidine]	≥ 8.00	≥ 8.00	≤ 10	≤ 10
Fc1cc(O[C@@H](C2CC2)[C@H]2CCNC2)ccc1Cl [Example 16-93, (S)-3-[(S)-(4-Chloro-3-fluorophenoxy)cyclopropylmethyl]pyrrolidine]	≥ 8.00	≥ 8.00	≤ 10	≤ 10
Clc1cc(Cl)cc(O[C@@H](C2CC2)[C@H]2CCNC2)c1 [Example 16-96, (S)-3-[(S)cyclopropyl-(3,5-dichlorophenoxy)methyl]pyrrolidine]	≥ 8.00	≥ 8.00	≤ 10	≤ 10
Clc1cc(Cl)cc(O[C@H](C2CC2)[C@H]2CCNC2)c1 [Example 16-97, (S)-3-[(R)cyclopropyl-(3,5-dichlorophenoxy)methyl]pyrrolidine]	≥ 8.00	≥ 8.00	≤ 10	≤ 10
Fc1cc(Cl)cc(O[C@@H](C2CC2)[C@H]2CCNC2)c1 [Example 16-98, (S)-3-[(S)-(3-Chloro-5-fluorophenoxy)cyclopropylmethyl]pyrrolidine]	≥ 8.00	≥ 8.00	≤ 10	≤ 100
Fc1cc(Cl)cc(O[C@H](C2CC2)[C@H]2CCNC2)c1 [Example 16-99, (S)-3-[(R)-(3-Chloro-5-fluorophenoxy)cyclopropylmethyl]pyrrolidine]	≥ 8.00	≥ 8.00	≤ 10	≤ 100
Clc1ccc(O[C@@H](C2CC2)[C@H]2CCNC2)cc1 [Example 16-103, (S)-3-[(S)-(4-Chlorophenoxy)cyclopropylmethyl]pyrrolidine]	≥ 8.00	≥ 8.00	≤ 10	≤ 10

Next, values leading:

pKi (hSERT [1])	pKi (hNET [2])	IC50 (hNET [3]) [nM]	IC50 (hSERT [4]) [nM]	Structure (SMILES)
≥ 8.00	≥ 8.00	≤ 10	≤ 100	Clc1cccc(Cl)c1O[C@@H](C1CCCCC1)[C@H]1CCNC1 [Example 19, (S)-3-[(S)-Cyclohexyl-(2,6-dichlorophenoxy)methyl]pyrrolidine]
≥ 8.00	≥ 8.00	≤ 10	≤ 10	Fc1cccc(O[C@H](C2CCCCC2)[C@H]2CCNC2)c1Cl [Example 20-5, (S)-3-[(R)-(2-Chloro-3-fluorophenoxy)cyclohexylmethyl]pyrrolidine]
≥ 8.00	≥ 8.00	≤ 10	≤ 10	C=CC[C@H](Oc1cccc(Cl)c1C)[C@H]1CCNC1 [Example 24, (S)-3-[(S)-1-(3-Chloro-2-methylphenoxy)but-3-enyl]-pyrrolidine]
≥ 8.00	≥ 8.00	≤ 10	≤ 10	C=CC[C@H](Oc1ccc(Cl)cc1)[C@H]1CCNC1 [Example 25-1, (S)-3-[(S)-1-(4-Chlorophenoxy)but-3-enyl]pyrrolidine]

Source: US7994209B2, “3-phenoxymethylpyrrolidine compounds” (Theravance, Inc., priority 2009, dated 2011)
